Measurements: ChEMBL document CHEMBL5518242, “Discovery and Optimization of Novel Nonbile Acid FXR Agonists as Preclinical Candidates for the Treatment of Inflammatory Bowel Disease” (J Med Chem, 2024)

Details: human, caco-2
Description: Permeability in human Caco-2 cells

permeability: Permeable
SMILES: Cn1cc(C(=O)O)c2ccc(N3CCC(OCc4c(-c5c(Cl)cccc5Cl)noc4C4CC4)CC3)cc21 [TERN-101]
